Laboratory results reported in patent US20250263408A1 (Uniquest Pty Ltd, priority 2022, published 2025).

Legend:
[1] = test system: Ba/F3-WT (wild type) cells; assay: Ba/F3 Proliferation Assay, Ba/F3-WT (wild type) cells with mIL-3 (Resazurin); format: cell-based; details: Ba/F3-WT cells +mIL-3, 48-hour incubation
Ba/F3-Syk cells = target: T1, Ba/F3-Syk cells (Homo sapiens, UniProt P43405); assay: Ba/F3 Proliferation Assay, Ba/F3-Syk cells (Resazurin); format: cell-based; details: 48-hour incubation
T1 construct: fused on or other part: Possible but unprinted fusion partner: TEL (ETV6), the usual partner for Ba/F3 lines transformed by Syk; Nothing on a partner is printed

SMILES | EC50 ([1]; Mus musculus, BaF3, 48 h) [nM] | EC50 (Ba/F3-Syk cells) [nM] | EC50 [1] [nM]
CC(C)n1ccc(-c2cc3ncccc3c(OC[C@@H]3CNCCCO3)n2)c1 [Compound 6.24, 5-{[(2S)-1,4-oxazepan-2-yl]methoxy}-7-[1-(propan-2-yl)-1H-pyrrol-3-yl]-1,6-naphthyridine] | 2820 | 16.4 | –
COCCn1ccc(-c2cc3ncccc3c(O[C@H](C)[C@@H]3CNCCO3)n2)c1 [Compound 6.29, 7-[1-(2-methoxyethyl)-1H-pyrrol-3-yl]-5-[(1R)-1-[(2S)-morpholin-2-yl]ethoxy]-1,6-naphthyridine] | 1440 | 30.7 | –
CCn1ccc(-c2cc3ncccc3c(O[C@H](C)[C@@H]3CNCCO3)n2)c1 [Compound 6.31, 7-(1-ethyl-1H-pyrrol-3-yl)-5-[(1R)-1-[(2S)-morpholin-2-yl]ethoxy]-1,6-naphthyridine] | 3340 | 49.4 | –
FC1(F)CC(Cn2ccc(-c3cc4ncccc4c(OC[C@@H]4CNCCO4)n3)c2)C1 [Compound 6.42, 7-{1-[(3,3-difluorocyclobutyl)methyl]-1H-pyrrol-3-yl}-5-{[(2S)-morpholin-2-yl]methoxy}-1,6-naphthyridine] | 838 | 15.1 | –
c1cnc2cc(-c3cnn([C@H]4CCOC4)c3)nc(OC[C@@H]3CNCCO3)c2c1 [Compound 6.44, 5-{[(2S)-morpholin-2-yl]methoxy}-7-{1-[(3S)-oxolan-3-yl]-1H-pyrazol-4-yl}-1,6-naphthyridine] | > 1000 | 32.9 | –
c1cnc2cc(-c3cnn([C@@H]4CCOC4)c3)nc(OC[C@@H]3CNCCO3)c2c1 [Compound 6.45, 5-{[(2S)-morpholin-2-yl]methoxy}-7-{1-[(3R)-oxolan-3-yl]-1H-pyrazol-4-yl}-1,6-naphthyridine] | > 1000 | 68.7 | –
CC(C)n1ccc(-c2cc(OC[C@@H]3CNCCO3)c3cccnc3c2)c1 [Compound 7.1, 5-{[(2S)-morpholin-2-yl]methoxy}-7-[1-(propan-2-yl)-1H-pyrrol-3-yl]quinoline] | 2780 | 47.9 | –
c1cnc2cc(-c3ccn(C4CCC4)c3)cc(OC[C@@H]3CNCCO3)c2c1 [Compound 7.3, 7-(1-cyclobutyl-1H-pyrrol-3-yl)-5-{[(2S)-morpholin-2-yl]methoxy}quinoline] | 2880 | 74 | –
CC(C)n1ccc(-c2cc(OC[C@@H]3CNCC(C)(C)O3)c3cccnc3c2)c1 [Compound 7.4, 5-{[(2S)-6,6-dimethylmorpholin-2-yl]methoxy}-7-[1-(propan-2-yl)-1H-pyrrol-3-yl]quinoline] | 2690 | 29.7 | –
CC1(C)CNC[C@@H](COc2cc(-c3ccn(C4CCC4)c3)cc3ncccc23)O1 [Compound 7.5, 7-(1-cyclobutyl-1H-pyrrol-3-yl)-5-{[(2S)-6,6-dimethylmorpholin-2-yl]methoxy}quinoline] | 2100 | 36 | –
FC1(F)CC1n1ccc(-c2cc(OC[C@@H]3CNCCO3)c3cccnc3c2)c1 (stereo partly drawn) [Compound 7.7, 7-[1-(2,2-difluorocyclopropyl)-1H-pyrrol-3-yl]-5-{[(2S)-morpholin-2-yl]methoxy}quinoline] | 4330 | 86.5 | –
CC1(C)CNC[C@@H](COc2cc(-c3ccn(C4CC4(F)F)c3)cc3ncccc23)O1 (stereo partly drawn) [Compound 7.8, 7-[1-(2,2-difluorocyclopropyl)-1H-pyrrol-3-yl]-5-{[(2S)-6,6-dimethylmorpholin-2-yl]methoxy}quinoline] | 3270 | 19.3 | –
COCCn1ccc(-c2cc(OC[C@@H]3CNCCO3)c3cccnc3c2)c1 [Compound 7.9, 7-[1-(2-methoxyethyl)-1H-pyrrol-3-yl]-5-{[(2S)-morpholin-2-yl]methoxy}quinoline] | 2440 | 234 | –
CC(C)n1ccc(-c2cc(OC[C@@H]3CNCC4(CC4)O3)c3cccnc3c2)c1 [Compound 7.13, 5-{[(5S)-4-oxa-7-azaspiro[2.5]octan-5-yl]methoxy}-7-[1-(propan-2-yl)-1H-pyrrol-3-yl]quinoline] | 4020 | 22.4 | –
FC(F)Cn1cc(-c2cc(OC[C@@H]3CNCCCO3)c3cccnc3c2)cn1 [Compound 7.15, 7-[1-(2,2-difluoroethyl)-1H-pyrazol-4-yl]-5-{[(2S)-1,4-oxazepan-2-yl]methoxy}quinoline] | 2770 | 97.5 | –
c1cnc2cc(-c3ccn(C4COC4)c3)cc(OC[C@@H]3CNCC4(CC4)O3)c2c1 [Compound 7.16, 5-{[(5S)-4-oxa-7-azaspiro[2.5]octan-5-yl]methoxy}-7-[1-(oxetan-3-yl)-1H-pyrrol-3-yl]quinoline] | 1710 | 19.8 | –
CCn1ccc(-c2cc(OC[C@@H]3CNCC(C)(C)O3)c3cccnc3c2)c1 [Compound 7.17, 5-{[(2S)-6,6-dimethylmorpholin-2-yl]methoxy}-7-(1-ethyl-1H-pyrrol-3-yl)quinoline] | 1960 | 15.8 | –
CCn1ccc(-c2cc(O[C@H](C)[C@@H]3CNCCO3)c3cccnc3c2)c1 [Compound 7.18, 7-(1-ethyl-1H-pyrrol-3-yl)-5-[(1R)-1-[(2S)-morpholin-2-yl]ethoxy]quinoline] | 1750 | 53.7 | –
CC(C)n1ccc(-c2cc(O[C@H](C)[C@@H]3CNCCO3)c3cccnc3c2)c1 [Compound 7.19, 5-[(1R)-1-[(2S)-morpholin-2-yl]ethoxy]-7-[1-(propan-2-yl)-1H-pyrrol-3-yl]quinoline] | 1870 | 36.3 | –
CCn1ccc(-c2cc(OC[C@@H]3CNCCO3)c3cccnc3c2)c1 [Compound 7.20, 7-(1-ethyl-1H-pyrrol-3-yl)-5-{[(2S)-morpholin-2-yl]methoxy}quinoline] | 1690 | 40 | –
COCCn1ccc(-c2cc(OC[C@@H]3CNCC4(CC4)O3)c3nccnc3c2)c1 [Compound 8.1, 7-[1-(2-methoxyethyl)-1H-pyrrol-3-yl]-5-{[(5S)-4-oxa-7-azaspiro[2.5]octan-5-yl]methoxy}quinoxaline] | 1850 | 29.3 | –
CC(C)n1ccc(-c2cc(OC[C@@H]3CNCC4(CC4)O3)c3nccnc3c2)c1 [Compound 8.2, 5-{[(5S)-4-oxa-7-azaspiro[2.5]octan-5-yl]methoxy}-7-[1-(propan-2-yl)-1H-pyrrol-3-yl]quinoxaline] | 614 | 22.1 | –
COCCn1ccc(-c2cc(OC[C@@H]3CNCCO3)c3nccnc3c2)c1 [Compound 8.7] | – | 15.1 | 621
CCn1ccc(-c2cc(OC[C@@H]3CNCCCO3)c3nccnc3c2)c1 [Compound 8.9, 7-(1-ethyl-1H-pyrrol-3-yl)-5-{[(2S)-1,4-oxazepan-2-yl]methoxy}quinoxaline] | 1620 | 20.5 | –

More lines, main results first:

EC50 ([1]; Mus musculus, BaF3, 48 h) [nM] | EC50 (Ba/F3-Syk cells) [nM] | SMILES | EC50 [1] [nM]
1510 | 12.6 | CC1(C)CNC[C@@H](COc2nc(-c3cnn(CC4CC4)c3)cc3ncccc23)O1 [Compound 6.21, 7-[1-(cyclopropylmethyl)-1H-pyrazol-4-yl]-5-{[(2S)-6,6-dimethylmorpholin-2-yl]methoxy}-1,6-naphthyridine] | –
5590 | 52.2 | FC(F)Cn1cc(-c2cc3ncccc3c(OC[C@@H]3CNCCCO3)n2)cn1 [Compound 6.27, 7-[1-(2,2-difluoroethyl)-1H-pyrazol-4-yl]-5-{[(2S)-1,4-oxazepan-2-yl]methoxy}-1,6-naphthyridine] | –
2020 | 92 | CC[C@@H](C)n1cc(-c2cc3ncccc3c(OC[C@@H]3CNCCO3)n2)cn1 [Compound 6.32, 7-{1-[(2R)-butan-2-yl]-1H-pyrazol-4-yl}-5-{[(2S)-morpholin-2-yl]methoxy}-1,6-naphthyridine] | –
3760 | 49.3 | CC[C@@H](C)n1cc(-c2cc3ncccc3c(OC[C@@H]3CNCC(C)(C)O3)n2)cn1 [Compound 6.33, 7-{1-[(2R)-butan-2-yl]-1H-pyrazol-4-yl}-5-{[(2S)-6,6-dimethylmorpholin-2-yl]methoxy}-1,6-naphthyridine] | –
2080 | 91.8 | CC[C@H](C)n1cc(-c2cc3ncccc3c(OC[C@@H]3CNCCO3)n2)cn1 [Compound 6.34, 7-{1-[(2S)-butan-2-yl]-1H-pyrazol-4-yl}-5-{[(2S)-morpholin-2-yl]methoxy}-1,6-naphthyridine] | –
2300 | 23.6 | CC[C@H](C)n1cc(-c2cc3ncccc3c(OC[C@@H]3CNCC(C)(C)O3)n2)cn1 [Compound 6.35, 7-{1-[(2S)-butan-2-yl]-1H-pyrazol-4-yl}-5-{[(2S)-6,6-dimethylmorpholin-2-yl]methoxy}-1,6-naphthyridine] | –
1390 | 81.6 | CC1(Cn2cc(-c3cc4ncccc4c(OC[C@@H]4CNCCO4)n3)cn2)COC1 [Compound 6.36] | –
560 | 60.3 | FC1(F)CC(Cn2cc(-c3cc4ncccc4c(OC[C@@H]4CNCCO4)n3)cn2)C1 [Compound 6.37] | –
972 | 25.9 | CC1(C)CNC[C@@H](COc2nc(-c3cnn(CC4CC(F)(F)C4)c3)cc3ncccc23)O1 [Compound 6.38, 7-{1-[(3,3-difluorocyclobutyl)methyl]-1H-pyrazol-4-yl}-5-{[(2S)-6,6-dimethylmorpholin-2-yl]methoxy}-1,6-naphthyridine] | –
1520 | 21.4 | CC(F)(F)Cn1cc(-c2cc3ncccc3c(OC[C@@H]3CNCC(C)(C)O3)n2)cn1 [Compound 6.39, 7-[1-(2,2-difluoropropyl)-1H-pyrazol-4-yl]-5-{[(2S)-6,6-dimethylmorpholin-2-yl]methoxy}-1,6-naphthyridine] | –
1440 | 59.8 | CC(F)(F)Cn1cc(-c2cc3ncccc3c(OC[C@@H]3CNCCO3)n2)cn1 [Compound 6.40, 7-[1-(2,2-difluoropropyl)-1H-pyrazol-4-yl]-5-{[(2S)-morpholin-2-yl]methoxy}-1,6-naphthyridine] | –
> 1000 | 14.9 | CC(F)(F)Cn1ccc(-c2cc3ncccc3c(OC[C@@H]3CNCCO3)n2)c1 [Compound 6.43, 7-[1-(2,2-difluoropropyl)-1H-pyrrol-3-yl]-5-{[(2S)-morpholin-2-yl]methoxy}-1,6-naphthyridine] | –
